Measured values taken from patent publication US8168832B2, “2,4,6-trialkylphenyl substituted cyclopentane-1,3-dione” (Bayer Cropscience AG, priority 2006, dated 2012).

Key:
crop plants (cereal) = experiment: Container trials with cereal in the greenhouse, mefenpyr 1 day prior to herbicide application (Example B, use of safeners); format: in vivo; conditions: without safener
Procedure: Seeds of monocotyledonous and dicotyledonous weed and crop plants are placed into sandy loam in wood fiber pots or in plastic pots, covered with soil and cultivated in a greenhouse, during the vegetation period also outdoors outside of the greenhouse, under good growth conditions. 2 to 3 weeks after sowing, the test plants are treated at the one- to three-leaf stage. The test compounds, formulated as wettable powders (WP) or liquid (EC), are, in various dosages at a water application rate of 300 l/ha (converted), with wetting agent (0.2 to 0.3%) added, sprayed onto the plants and the surface of the soil. […]
If it is additionally to be tested as to whether safeners can improve the plant compatibility of test substances in the case of crop plants, the following options are used for applying the safener: • seeds of the crop plants are, before sowing, dressed with the safener substance (the amount of safener stated in percent, based on the weight of the seed) • before the application of the test substances, the crop plants are sprayed with the safener at a certain application rate per hectare (usually 1 day before the application of the test substances) • the safener is applied together with the test substance as a tank mix (the amount of safener is stated in g/ha or as a ratio, based on the herbicide). • By comparing the effect of test substances on crop plants without or with safener treatment, it is possible to assess the effect of the safener substance.
Container Trials with Cereal in the Greenhouse
Mefenpyr 1 Day Prior to Herbicide Application

[1] = system: monocotyledonous and dicotyledonous weed and crop plants; experiment: Herbicidal post-emergence action (Example B), also comparison with known compounds; format: in vivo; set-up: key: % herbicidal effect: 0 = like control, 100 = plants died
Procedure: Seeds of monocotyledonous and dicotyledonous weed and crop plants are placed into sandy loam in wood fiber pots or in plastic pots, covered with soil and cultivated in a greenhouse, during the vegetation period also outdoors outside of the greenhouse, under good growth conditions. 2 to 3 weeks after sowing, the test plants are treated at the one- to three-leaf stage. The test compounds, formulated as wettable powders (WP) or liquid (EC), are, in various dosages at a water application rate of 300 l/ha (converted), with wetting agent (0.2 to 0.3%) added, sprayed onto the plants and the surface of the soil. 3 to 4 weeks after the treatment of the test plants, the effect of the preparations is rated visually in comparison to untreated controls (herbicidal effect in percent (%): 100% effect=the plants have died, 0% effect=like control plants).

[2] = 10 days after application, 50 g of a.i./ha
[3] = 10 days after application, 100 g of a.i./ha
[4] = 10 days after application, 25 g of a.i./ha
[5] = 28 days after application, 25 g of a.i./ha
[6] = 28 days after application, 50 g of a.i./ha
[7] = 28 days after application, 100 g of a.i./ha
[8] = 28 days after application, 12.5 g of a.i./ha
[9] = 10 days after application, 200 g of a.i./ha

## CCc1cc(C)cc(C)c1C1=C(OC(=O)COC)C2(CCCC2)CC1=O [I-b-11]
Crop plants (cereal); [2]
  Summer wheat observed (%): 30%
Crop plants (cereal); [3]
  Summer wheat observed (%): 50%

## CCc1cc(C)cc(CC)c1C1=C(OC(=O)C(C)C)[C@H]2CCCC[C@H]2C1=O (relative stereo) [I-b-23]
Crop plants (cereal); 10 days after application, 12.5 g of a.i./ha
  Summer wheat observed (%): 30%
Crop plants (cereal); [4]
  Summer barley observed (%): 30%
  Summer wheat observed (%): 40%
Crop plants (cereal); [2]
  Summer barley observed (%): 60%
  Summer wheat observed (%): 70%
Crop plants (cereal); [3]
  Summer barley observed (%): 60%
  Summer wheat observed (%): 80%

## CCc1cc(C)cc(CC)c1C1=C(O)C2CCCCC2C1=O (centres unmarked) [I-a-9]
[1]; 100 g/ha
  ALOMY: 98
  AVEFA: 100
  LOLMU: 99
[1]; 200 g/ha
  ALOMY: 98
  AVEFA: 100
  LOLMU: 99
Crop plants (cereal); [5]
  Summer barley observed (%): 20%
  Summer wheat observed (%): 5%
Crop plants (cereal); [6]
  Summer barley observed (%): 50%
  Summer wheat observed (%): 60%
Crop plants (cereal); [7]
  Summer wheat observed (%): 60%

## CCc1cc(C)cc(CC)c1C1=C(OC(=O)OC)C2CCCCC2C1=O (centres unmarked) [I-c-10]
Crop plants (cereal); [5]
  Summer barley observed (%): 25%
  Summer wheat observed (%): 40%
Crop plants (cereal); [6]
  Summer barley observed (%): 50%
  Summer wheat observed (%): 80%
Crop plants (cereal); [7]
  Summer barley observed (%): 90%
  Summer wheat observed (%): 85%

## CCc1cc(C)cc(C)c1C1=C(OC(=O)COC)C2CCCCC2C1=O (centres unmarked) [I-b-15]
Crop plants (cereal); [8]
  Summer wheat observed (%): 10%
Crop plants (cereal); [5]
  Summer barley observed (%): 10%
  Summer wheat observed (%): 30%
Crop plants (cereal); [6]
  Summer barley observed (%): 30%
  Summer wheat observed (%): 50%
Crop plants (cereal); [7]
  Summer barley observed (%): 90%
  Summer wheat observed (%): 85%

## CCOC(=O)OC1=C(c2c(CC)cc(C)cc2CC)C(=O)C2CCCCC12 (centres unmarked) [I-c-8]
Crop plants (cereal); [4]
  Summer barley observed (%): 15%
  Summer wheat observed (%): 50%
Crop plants (cereal); [2]
  Summer barley observed (%): 20%
  Summer wheat observed (%): 70%
Crop plants (cereal); [3]
  Summer barley observed (%): 30%
  Summer wheat observed (%): 80%

## CCc1cc(C)cc(C)c1C1C(=O)[C@H]2CCCC[C@@H]2C1=O [I-a-1]
Crop plants (cereal); [8]
  Summer barley observed (%): 5%
  Summer wheat observed (%): 10%
Crop plants (cereal); [5]
  Summer barley observed (%): 50%
  Summer wheat observed (%): 40%
Crop plants (cereal); [6]
  Summer barley observed (%): 70%
  Summer wheat observed (%): 50%
Crop plants (cereal); [7]
  Summer wheat observed (%): 50%

## CCc1cc(C)cc(CC)c1C1=C(OC(=O)COC)[C@H]2CCCC[C@@H]2C1=O (relative stereo) [I-b-27]
Crop plants (cereal); [8]
  Summer wheat observed (%): 10%
Crop plants (cereal); [5]
  Summer wheat observed (%): 20%
Crop plants (cereal); [6]
  Summer barley observed (%): 20%
  Summer wheat observed (%): 40%
Crop plants (cereal); [7]
  Summer barley observed (%): 50%
  Summer wheat observed (%): 70%

## CCc1cc(C)cc(CC)c1C1=C(OC(=O)COC)C2(CCCCC2)CC1=O [I-b-33]
Crop plants (cereal); [4]
  Summer wheat observed (%): 15%
Crop plants (cereal); [2]
  Summer wheat observed (%): 30%
Crop plants (cereal); [3]
  Summer wheat observed (%): 65%

## CCc1cc(CC)c(C2=C(O)C3CCCCC3C2=O)c(CC)c1 (centres unmarked) [I-a-15]
Crop plants (cereal); [2]
  Summer barley observed (%): 20%
  Summer wheat observed (%): 20%
Crop plants (cereal); [3]
  Summer barley observed (%): 30%
  Summer wheat observed (%): 30%

## CCc1cc(C)cc(CC)c1C1=C(OC(=O)C(C)(C)C)[C@H]2CCCC[C@H]2C1=O (relative stereo) [I-b-24]
[1]; 100 g/ha
  ALOMY: 80
  AVEFA: 90
  LOLMU: 95
[1]; 200 g/ha
  ALOMY: 90
  AVEFA: 95
  LOLMU: 98
Crop plants (cereal); [4]
  Summer wheat observed (%): 30%
Crop plants (cereal); [2]
  Summer barley observed (%): 20%
  Summer wheat observed (%): 60%
Crop plants (cereal); [3]
  Summer barley observed (%): 50%
  Summer wheat observed (%): 65%
Crop plants (cereal); [9]
  Summer barley observed (%): 60%
  Summer wheat observed (%): 70%

## CCc1cc(C)cc(C)c1C1=C(O)C2CCCCCC2C1=O (centres unmarked) [I-a-18]
Crop plants (cereal); [5]
  Summer barley observed (%): 20%
  Summer wheat observed (%): 60%
Crop plants (cereal); [6]
  Summer barley observed (%): 50%
  Summer wheat observed (%): 70%
Crop plants (cereal); [7]
  Summer barley observed (%): 90%
  Summer wheat observed (%): 80%

## CCOC(=O)OC1=C(c2c(CC)cc(C)cc2CC)C(=O)C2CCCCC12 (centres unmarked) [I-c-9]
Crop plants (cereal); [8]
  Summer barley observed (%): 10%
  Summer wheat observed (%): 10%
Crop plants (cereal); [5]
  Summer barley observed (%): 20%
  Summer wheat observed (%): 30%
Crop plants (cereal); [6]
  Summer barley observed (%): 40%
  Summer wheat observed (%): 60%
Crop plants (cereal); [7]
  Summer barley observed (%): 90%
  Summer wheat observed (%): 70%

## CCc1cc(CC)c(C2=C(OC(=O)COC)C3CCCCC3C2=O)c(CC)c1 (centres unmarked) [I-b-42]
Crop plants (cereal); [4]
  Summer barley observed (%): 20%
  Summer wheat observed (%): 40%
Crop plants (cereal); [2]
  Summer barley observed (%): 40%
  Summer wheat observed (%): 50%
Crop plants (cereal); [3]
  Summer barley observed (%): 50%
  Summer wheat observed (%): 50%

## CCc1cc(C)cc(C)c1C1=C(O)C2(CCCCC2)CC1=O [I-a-3]
Crop plants (cereal); [4]
  Summer barley observed (%): 15%
Crop plants (cereal); [2]
  Summer barley observed (%): 20%
Crop plants (cereal); [5]
  Summer wheat observed (%): 25%
Crop plants (cereal); [6]
  Summer wheat observed (%): 25%

## CCc1cc(C)cc(CC)c1C1=C(O)C2CC3OC(C)(C)OC3CC2C1=O (mixture of isomers) [I-a-13]
Crop plants (cereal); [4]
  Summer barley observed (%): 30%
  Summer wheat observed (%): 50%
Crop plants (cereal); [2]
  Summer barley observed (%): 50%
  Summer wheat observed (%): 80%
Crop plants (cereal); [3]
  Summer barley observed (%): 60%
  Summer wheat observed (%): 80%

## CCOC(=O)OC1=C(c2c(C)cc(C)cc2CC)C(=O)C2CCCCC12 (centres unmarked) [I-c-4]
Crop plants (cereal); [8]
  Summer barley observed (%): 5%
  Summer wheat observed (%): 10%
Crop plants (cereal); [5]
  Summer barley observed (%): 10%
  Summer wheat observed (%): 20%
Crop plants (cereal); [6]
  Summer barley observed (%): 30%
  Summer wheat observed (%): 90%
Crop plants (cereal); [7]
  Summer barley observed (%): 80%
  Summer wheat observed (%): 95%

## CCc1cc(C)cc(CC)c1C1=C(OC(=O)C(C)(C)C)[C@H]2CCCC[C@@H]2C1=O (relative stereo) [I-b-26]
[1]; 100 g/ha
  ALOMY: 95
  AVEFA: 98
  LOLMU: 70
[1]; 200 g/ha
  ALOMY: 97
  AVEFA: 98
  LOLMU: 100
Crop plants (cereal); [6]
  Summer barley observed (%): 20%
  Summer wheat observed (%): 15%
Crop plants (cereal); [7]
  Summer barley observed (%): 80%
  Summer wheat observed (%): 70%

## CCc1cc(C)cc(C)c1C1=C(OC(=O)C(C)C)C2CCCCC2C1=O (centres unmarked) [I-b-16]
Crop plants (cereal); [4]
  Summer barley observed (%): 20%
  Summer wheat observed (%): 20%
Crop plants (cereal); [2]
  Summer barley observed (%): 40%
  Summer wheat observed (%): 50%
Crop plants (cereal); [3]
  Summer barley observed (%): 60%
  Summer wheat observed (%): 60%

## CCc1cc(C)cc(C)c1C1=C(OC(=O)COC)C2CCCCC2C1=O (centres unmarked) [I-b-13]
Crop plants (cereal); [8]
  Summer barley observed (%): 10%
  Summer wheat observed (%): 20%
Crop plants (cereal); [5]
  Summer barley observed (%): 20%
  Summer wheat observed (%): 70%
Crop plants (cereal); [6]
  Summer barley observed (%): 90%
  Summer wheat observed (%): 85%

## CCC(=O)OC1=C(c2c(CC)cc(C)cc2CC)C(=O)C2CCCCC12 (centres unmarked) [I-b-44]
Crop plants (cereal); [4]
  Summer barley observed (%): 20%
  Summer wheat observed (%): 20%
Crop plants (cereal); [2]
  Summer barley observed (%): 40%
  Summer wheat observed (%): 40%
Crop plants (cereal); [3]
  Summer barley observed (%): 40%
  Summer wheat observed (%): 40%

## CCc1cc(C)cc(CC)c1C1=C(OC(=O)OC)C2CCCCC2C1=O (centres unmarked) [I-c-14]
Crop plants (cereal); [8]
  Summer wheat observed (%): 20%
Crop plants (cereal); [5]
  Summer barley observed (%): 30%
  Summer wheat observed (%): 80%
Crop plants (cereal); [6]
  Summer barley observed (%): 93%
  Summer wheat observed (%): 95%

## CCC(=O)OC1=C(c2c(C)cc(C)cc2CC)C(=O)C2CCCCC12 (centres unmarked) [I-b-21]
Crop plants (cereal); [8]
  Summer barley observed (%): 5%
  Summer wheat observed (%): 20%
Crop plants (cereal); [5]
  Summer barley observed (%): 30%
  Summer wheat observed (%): 60%
Crop plants (cereal); [6]
  Summer barley observed (%): 50%
  Summer wheat observed (%): 70%
Crop plants (cereal); [7]
  Summer barley observed (%): 95%

## CCc1cc(C)cc(CC)c1C1=C(OC(=O)C(C)C)[C@H]2CCCC[C@@H]2C1=O (relative stereo) [I-b-28]
Crop plants (cereal); [8]
  Summer barley observed (%): 20%
  Summer wheat observed (%): 10%
Crop plants (cereal); [5]
  Summer barley observed (%): 30%
  Summer wheat observed (%): 70%
Crop plants (cereal); [6]
  Summer barley observed (%): 75%
  Summer wheat observed (%): 80%

## CCc1cc(C)cc(CC)c1C1=C(OC(=O)COC)[C@H]2CCCC[C@H]2C1=O (relative stereo) [I-b-25]
Crop plants (cereal); [5]
  Summer wheat observed (%): 10%
Crop plants (cereal); [6]
  Summer barley observed (%): 40%
  Summer wheat observed (%): 50%
Crop plants (cereal); [7]
  Summer barley observed (%): 95%
  Summer wheat observed (%): 70%
